According to US20240117005A1, “NOVEL BICYCLIC PEPTIDES” (THE COUNCIL OF THE QUEENSLAND INSTITUTE OF MEDICAL RESEARCH, priority 2021, published 2024):
Starred links: 1 amine or outer side, 2 acyl side, 3 side chain; linkers in the order of their positions; H or OH if unused. Positions of bridges follow the written chain, without caps; N, C: chain ends. No end group written: not given here. *: point of attachment. TBMB = c1c(C[*:1])cc(C[*:3])cc1C[*:2]; Myristyl = CCCCCCCCCCCCCC*

Columns and labels:
CSC = CSC inhibition (Table 10 summary); assay type: cell-based; conditions: linear peptide derivatives; change stated relative to prototype PDL1-L1
[1] = test system: cancer cell proliferation; test: Cancer cell proliferation (Table 12 summary); assay type: cell-based
Experimental: (§1) MDA-MB-231 cells were seeded at 4×10^3 cells/well into a 96-well flat bottom tissue culture plate in a final volume of 100 ul and left to adhere for 24 hours at 37° C. and 5% CO2. Cells were then treated with inhibitors for 72 hours at a final concentration of 200, 100, 50, 25, 12.5 or 6.25 μM. Following inhibition, media was removed and replaced with 100 μL/well of WST-1 cell proliferation reagent (Sigma-Aldrich, Cat# 11644807001) at 1:10 final dilution. Absorbance was recorded at 450 nm at 1, 2, 3, and 4 hour incubation periods using a microplate spectrophotometer (with 30 sec mix time). Data represent a single independent experiment performed in triplicate, results are graphed as mean +/− standard error (SE).
(§2) 4T1, CT26 or MDA-MB-231 cancer cell lines were treated with DL-2 or DL-2-D bicyclic inhibitors for 72 hours. Following inhibition, media was removed and replaced with WST-1 cell proliferation reagent. Absorbance was recorded at 450 nm after 1 hour. Data represent a single independent experiment performed in triplicate; results are graphed as mean +/− standard error (SE).

[2] = test system: metastatic initiating cells (MICs); test: Flow cytometry for alanine walk (MIC inhibition); assay type: cell-based; conditions: alanine walk peptide inhibitors, FACS MIC signature
Experimental: FACS (Fluorescence-activated cell sorting) was performed on single-cell suspensions treated with a suite of alanine walk peptide inhibitors. Cells were stained an array of antibodies to target the metastatic initiating cell (MIC) signature including CD44, CD24, SNAIL, ABCB5, CSV and Hoechst dye to monitor cell viability. The FACS gating strategy used is adopted and modified from our signature for metastatic initiating cells (MICs), which sorted cells based on the MIC, therapeutic resistant phenotype, shown to be associated with metastatic and aggressive cancer cells. A flow cytometry gating strategy was always included in the analysis to exclude dead cells ([…]). Flow cytometry acquisition was performed on single cell suspensions using BLSR II. Analysis was performed using FlowJo software.

MDA-MB-231 cells = test: WST-1 cell proliferation assay, MDA-MB-231; assay type: cell-based, human; conditions: MDA-MB-231, WST-1, 72 hours
Experimental: as §1
(§3) (A) CT26, 4T1 or MDA-MB-231 Cells were treated with inhibitors for 72 hours. Following inhibition, media was removed and replaced with WST-1 cell proliferation reagent. Absorbance was recorded at 450 nm after 1 hour. Data represent a single independent experiment performed in triplicate. Results are graphed as mean +/− standard error (SE). B) MDA-MB-231 or CT26 cancer cells were treated with vehicle control, DL-2-Batch 1 (original stock), DL-2-Batch 2 (current stock), DL-2-TBAB or linear PDL1. Cells were permeabilised and were probed with the DUOLINK ligation assay. Cover slips were mounted on glass microscope slides with ProLong nucblue glass Antifade reagent (Life Technologies). PDL1Ac and IMPα1 DUOLINK Digital images were analysed using ImageJ software (ImageJ, NIH, Bethesda, MD, USA) and graphs represent the mean DOT Fluorescent Intensity in the nucleus or the cytoplasm compartments with significant differences calculated as per one-way ANOVA comparison. (C) MDA-MB-231 or CT26 cancer cells were treated with vehicle control, DL-2-Batch 1 (Original stock), DL-2-Batch 2 (current stock), DL-2-TBAB or linear PDL1. Cells were permeabilised and were probed with the DUOLINK ligation assay. Cover slips were mounted on glass microscope slides with ProLong nucblue glass Antifade reagent (Life Technologies). PDL1-unmodified and IMPα1 DUOLINK digital images were analysed using ImageJ software (ImageJ, NIH, Bethesda, MD, USA) and graphs represent the mean DOT fluorescent intensity in the nucleus or the cytoplasm compartments with significant differences calculated as per one-way ANOVA comparison.
as §2
Cells weretreated with inhibitors for 48 hours. Following inhibition, media was removed and replaced with WST-1 cell proliferation reagent. Absorbance was recorded at 450 nm after 1 hour.

MDA-MB-231-Br cells = test: WST-1 cell proliferation assay, MDA-MB-231-Br; assay type: cell-based, human; conditions: WST-1
[3] = test system: PDL1-PTM1, CSV and ALDH1A1 in 4T1 cells; test: Imaging of PDL1-PTM1, CSV and ALDH1A1 after cyclic PDL1 peptide; assay type: cell-based; conditions: 4T1 breast cancer cell line (Table 11 comment)
Experimental: Breast cancer cell line, 4T1, was treated with vehicle control or cyclic PDL1 peptide (cyclic PDL1) at a concentration of 50 μM. Cells were permeabilised and were probed with primary antibodies against PDL1-PTM1, CSV and ALDH1A1. Cover slips were mounted on glass microscope slides with ProLong nucblue glass Antifade reagent (Life Technologies). PDL1-PTM1, CSV and ALDH1A1 digital images were analysed using ImageJ software (ImageJ, NIH, Bethesda, MD, USA). Graphs represent the mean fluorescent intensity in the nucleus or the cytoplasm compartments with significant differences calculated as per Mann-Whitney analysis or the ratio of nuclear to cytoplasmic staining for PDL1-PTM1 which was calculated using the formula F(n−b)/(c−b) wherein n=nuclear staining, b=background, c=cytoplasmic. A ratio of 1 or high indicates nuclear bias, under 1 indicates cytoplasmic bias.

CT26 cells = test: WST-1 cell proliferation assay, CT26; assay type: cell-based, mouse; conditions: CT26, WST-1, 72 hours
Experimental: as §3, §2

4T1 cells = test: WST-1 cell proliferation assay, 4T1; assay type: cell-based; conditions: 4T1, WST-1, 72 hours
Experimental: as §3, §2

[4] = Rat plasma stability assay; assay type: in vitro ADME; conditions: 37° C., up to 24 hours
Experimental: The stability assay was performed as per CRO's protocol (Creative Peptides). In brief, peptide stability assays were carried out using a rat plasma model with the following steps: • 3.6 mL of human plasma and rat plasma were thawed at room temperature and centrifuged at 3000 rpm for 15 min. Remove the precipitate. • Prepare 20 mL termination solution ([…]) and precool at 4° C. • Prepare the following solution:
• Incubate the tube at 37° C. Take out 200 μL plasma sample at desired time points up to 24 hours respectively (e.g., at 0, 15, 30, 60, 120 mins, etc). Add 400 μL pre-cooled stop solution, centrifuge at 3000 rpm, 4° C. for 15 min, and carefully aspirate the supernatant. • The supernatant samples were filtered with a 0.22 μm filter membrane, and then analysed by LC-MS in order to determine the percentage of the test compound remaining.
The stability assay was performed using the same protocol as described above in Example 7.

[5] = test system: 4T1 TNBC metastatic cancer cells; test: 4T1 model of metastatic breast cancer in mice; assay type: in vivo, mouse
Experimental: 4T1 Gold standard immunotherapy resistant mouse model mice obtained from the ARC, Perth and mice were inoculated with 4T1 TNBC metastatic cancer cells. DL-2 is supplied lyophilised in glass vials and was reconstituted using sodium chloride injection BP (0.9% saline) to make a stock solution of 10 mg/mL using a needle/syringe, DL-2 was mixed by inversion. Animals were then injected by intraperitoneal injection at 10, 20 or 30 mg/kg daily and rested over the weekend. Mice were monitored over time for body weight and tumour volume.
4T1 Gold standard immunotherapy resistant mouse model mice obtained from the ARC, Perth and mice were inoculated with 4T1 TNBC metastatic cancer cells. DL-2 or DL-2-D is supplied lyophilised in glass vials was reconstituted using sodium chloride injection BP (0.9% saline) to make a stock solution of 10 mg/mL using a needle/syringe, DL-2 was mixed by inversion. Animals were then injected by intraperitoneal injection and mice were monitored over time for body weight and tumour volume for DL-2 at 20 mg/kg every second day with resting over the weekend in conjunction with αPD1 or isotype control (10 mg/kg).
DL-2-D was mixed by inversion. Animals were then injected by intraperitoneal injection and mice were monitored over time for body weight and tumour volume for DL-2-D at a concentration of 20 mg/kg every two days (identical regime to αPD1) in conjunction with αPD1 or isotype control (10 mg/kg).

CD8+ TIM3+ T cells = test: FACS of CD8+ TIM3+ T cells from 4T1 tumour mouse model; assay type: in vivo; conditions: 4T1 TNBC tumour mouse model
Description: FIG. 32 provides graphical representations showing a comparison between DL-2 and DL-2-D. (A) As per FIGS. 24, and 25, above. (B) Fixed cells were washed with PBS and resuspended in PBS containing 1% BSA prior to antibody staining. Primary antibodies targeting CD8, TIM3 and PD1 antibodies were used. Appropriate antibody controls were used for all flow cytometry stain and acquisition. All samples were acquired on an LSR Fortessa cytometer (BD Biosciences, Franklin Lakes, NJ), and data were analyzed using FlowJo v10 software

[6] = DL-2-D (20 mg/kg) and αPD1 (10 mg/kg) combination therapy, day 20

ACLTFIFCRLRKGRCMMDVKK [DL2-Linear, Myristyl- DL2 linear peptide]
Potency (CSC inhibition) (CSC): No change

ACLTFIFRLRCKGRMCMDVGKK (Myristyl-ACLTFIFRLRCKGRMCMDVGKK; linker 2-11-16 via TBMB) [DL-3, bicyclic peptide, Myristyl- N-terminus, TBMB backbone]
inhibition of cancer cell proliferation ([1]; Table 12 comment): DL-3 displayed no

AFIFRLRKGRMMDVKK
% Inhibition (number of metastatic initiating cells) [2]: 80.13%

LTFICFRLRKGRMCMDVCGKK (Myristyl-LTFICFRLRKGRMCMDVCGKK; linker 5-14-18 via TBMB) [DL-1, bicyclic peptide, Myristyl- N-terminus, TBMB backbone]
inhibition of proliferation (MDA-MB-231 cells): able to inhibit proliferation | inhibition of proliferation (MDA-MB-231-Br cells): able to inhibit proliferation | fold less potent than DL-2 at inhibiting cancer cell proliferation [1]: DL-1 was 3-fold less

LTFIFRLRKGRMMDVKKAGGA (Myristyl-LTFIFRLRKGRMMDVKKAGGA; not fully specified) [PDL1-L1 C2, Myristyl- cyclic peptide derivative, 4 linker amino acids]
inhibition of mesenchymal cancer markers and nuclear PDL1-PTM1 [3]: Failed to inhibit

TAIFRLRKGRMMDVKK
% Inhibition (number of metastatic initiating cells) [2]: 74.35%

TFAFRLRKGRMMDVKK
% Inhibition (number of metastatic initiating cells) [2]: 30.2%

TFIARLRKGRMMDVKK
% Inhibition (number of metastatic initiating cells) [2]: 4.4%

TFIFALRKGRMMDVKK
% Inhibition (number of metastatic initiating cells) [2]: 71.67%

TFIFRARKGRMMDVKK
% Inhibition (number of metastatic initiating cells) [2]: 35.6%

TFIFRLAKGRMMDVKK
% Inhibition (number of metastatic initiating cells) [2]: 43.98%

TFIFRLRAGRMMDVKK
% Inhibition (number of metastatic initiating cells) [2]: 0%

TFIFRLRKARMMDVKK
% Inhibition (number of metastatic initiating cells) [2]: 41.38%

TFIFRLRKGAMMDVKK
% Inhibition (number of metastatic initiating cells) [2]: 62.69%

TFIFRLRKGRAMDVKK
% Inhibition (number of metastatic initiating cells) [2]: 74.35%

TFIFRLRKGRMADVKK
% Inhibition (number of metastatic initiating cells) [2]: 100%

TFIFRLRKGRMMAVKK
% Inhibition (number of metastatic initiating cells) [2]: 100%

TFIFRLRKGRMMDAKK
% Inhibition (number of metastatic initiating cells) [2]: 81.9%

TFIFRLRKGRMMDVAK
% Inhibition (number of metastatic initiating cells) [2]: 48.7%

TFIFRLRKGRMMDVKA
% Inhibition (number of metastatic initiating cells) [2]: 58.03%

acltfifcrirckGrcmmdvkk [DL-2-D]
inhibition of proliferation (MDA-MB-231 cells): significantly inhibit the proliferation | inhibition of proliferation (CT26 cells): significantly inhibit the proliferation | inhibition of proliferation (4T1 cells): significantly inhibit the proliferation | stability in rat plasma (percentage of test compound remaining) [4]: significantly more stable | lung metastasis [5, 6]: reduces | primary tumour burden [5, 6]: reduces | lung, liver or spleen weights ([5]; DL-2-D alone): does not alter | body weight ([5]; DL-2-D and anti-PD1 combination therapy): No change | tumour volume ([5]; DL-2-D as a monotherapy agent): significantly inhibits | lung, liver or spleen weights ([5]; DL-2-D in combination with anti-PD1): does not alter | body weight ([5]; DL-2-D monotherapy): No change | abrogating the TIM3+ immunotherapy-resistant signature in CD8+ T cells (CD8+ TIM3+ T cells): more potent than DL-2

acltfifcrlrkGrcmmdvkk [DL2-D-Linear]
Potency (CSC inhibition) (CSC): No change

kkvdmmcrGkrlrcfiftlca [DL2-D Ret Linear]
Potency (CSC inhibition) (CSC): No change
